Reference: patent publication US9932637B2, “Genetic polymorphisms associated with cardiovascular disorders and drug response, methods of detection and uses thereof” (CELERA CORPORATION, priority 2003, dated 2018)
Values joined by “and” are separate entries in the source; they are usually repeats but may differ in a detail not shown here. Equal values may be shown once.

Test system: patients with prior myocardial infarction (CARE study)
Experiment: CARE aligned analysis (prospective and case/control design, white males): association of genotypes with pravastatin efficacy (Tables 13, 15)
Format: in vivo, human
Details: for Pravastatin Patients n/total: WM
Protocol: The data presented in Table 8 based on an association of genotypes with pravastatin efficacy of the CARE samples were further analyzed and presented in Table 13. The further analysis was performed to align the data obtained from the analysis of the CARE samples, which was a prospective study, to the analysis of the WOSCOP samples, which was a case/control study. Table 13 also presents an analysis of the association of genotypes with pravastatin efficacy in the WOSCOPs samples. Relative to the analysis performed on the data presented in Table 8, there are two significant differences to determine if the SNP influenced pravastatin efficacy. Data obtained from the CARE samples were separated by study design into two groups, those in the prospective study design group and those in the case/control study design group. The original care study contained 16 protocol defined cardiovascular disease defined endpoints and 150 other phenotypes. […] The control groups used to compare the data were also divided into two groups, the “all possible” control group and the “cleaner” control group. […] Because the participants in the WOSCOPs trial were all white males, only data obtained from white males in the CARE study were analysed. Data from the “all possible” and “cleaner” controls were compared to data obtained from the cases in the prospective study design while only data from “cleaner” controls were compared to cases in the case/control study design. The data from the case/control cohorts were analysed using conditional logistic regression (as opposed to logistic regression used for the original anaylsis).
The anaylsis was refined as described for both Tables 13 and 14.

[1] = PRKCQ hCV15954277, CARE, Case/Control, F MI/SD/NF MI
[2] = PRKCQ hCV15954277, CARE, Prospective, F MI/SD/NF MI
[3] = SERPINA5 hCV9596963, CARE Case/Control, F MI/SD/NF MI
[4] = SN hCV25623265, CARE Case/Control, F MI/SD/NF MI
[5] = SN hCV25623265, CARE Prospective, F MI/SD/NF MI
[6] = TAP1 hCV549926, CARE Case/Control, F MI/SD/NF MI
[7] = TAP1 hCV549926, CARE Prospective, F MI/SD/NF MI
[8] = TIMP2 hCV25629888, CARE Case/Control, F MI/SD/NF MI
[9] = TNF hCV7514879, CARE Case/Control, F MI/SD/NF MI
[10] = TNF hCV7514879, CARE Prospective, F MI/SD/NF MI
[11] = VTN hCV2536595, CARE Case/Control, F MI/SD/NF MI
[12] = VTN hCV2536595, CARE Prospective, F MI/SD/NF MI

`CC[C@H](C)C(=O)O[C@H]1C[C@H](O)C=C2C=C[C@H](C)[C@H](CC[C@@H](O)C[C@@H](O)CC(=O)O)[C@H]21` [pravastatin] was tested, and the “n/total (%) cases, Pravastatin Patients, 2 Rare Alleles” value (PON1 hCV2548962, 2 rare alleles, CARE Prospective, Total CHD Events, All Possible controls, White Males) was 18/107 (16.8%), the “Pravastatin Patients n/total” value (PPOX hCV25922816, 0 Rare Alleles, CARE Prospective, F&NF MI, Cleaner controls) was 116/721 and the “Pravastatin Patients n/total” value (PPOX hCV25922816, 1 Rare Allele, CARE Case/Control, F&NF MI, All Possible controls) was 10/164. The “Pravastatin Patients n/total” value (PPOX hCV25922816, 1 Rare Allele, CARE Prospective, F&NF MI, All Possible controls) was 10/169, the “Pravastatin Patients n/total” value (PPOX hCV25922816, 1 Rare Allele, CARE Prospective, F&NF MI, Cleaner controls) was 10/113 and the “2 Rare Alleles (%), Pravastatin Patients” value (PPOX hCV25922816, CARE Case/Control, F&NF MI) was “(16.7%)”. For the same compound, the “2 Rare Alleles (%), Pravastatin Patients” value (PPOX hCV25922816, CARE Prospective, F&NF MI) was “(16.7%)”, the “2 rare alleles n/total (%), pravastatin patients” value [1] was “(11.2%)” and the “Pravastatin vs placebo odds ratio, 0 rare alleles” value [1] was 0.58. For the same compound, the “Pravastatin vs placebo odds ratio, 1 rare allele” value [1] was 1.04, the “Pravastatin vs placebo odds ratio, 2 rare alleles” value [1] was 3.15 and the “Pravastatin vs placebo odds ratio, 0 rare alleles” value [2] was 0.57 and 0.56. The “Pravastatin vs placebo odds ratio, 1 rare allele” value [2] was 1.08 and 0.85, the “Pravastatin vs placebo odds ratio, 2 rare alleles” value [2] was 3.38 and 2.80 and the “2 Rare Alleles (%), Pravastatin Patients” value (SELL hCV16172571, CARE Case/Control, F&NF MI) was “(14.3%)”. The “2 Rare Alleles (%), Pravastatin Patients” value (SELL hCV16172571, CARE Prospective, F&NF MI) was “(12.9%)”, the “2 Rare Alleles (%), Pravastatin Patients” value (SELL hCV25474627, CARE Case/Control, F&NF MI) was “(14.8%)” and the “2 Rare Alleles (%), Pravastatin Patients” value (SELL hCV25474627, CARE Prospective, F&NF MI) was “(13.3%)”. For the same compound, the “2 Rare Alleles (%), Pravastatin Patients” value (SERPINA1 hCV25640504, CARE Case/Control, F&NF MI) was “(8.6%)”, the “2 Rare Alleles (%), Pravastatin Patients” value (SERPINA1 hCV25640504, CARE Prospective, F&NF MI) was “(8.4%)” and the “2 Rare Alleles (%), Pravastatin Patients” value [3] was “(15.1%)”. For the same compound, the “2 Rare Alleles n/total, Pravastatin Patients” value [3] was 21/139, the “Pravastatin vs placebo odds ratio, 0 rare alleles” value [3] was 0.89 and the “Pravastatin vs placebo odds ratio, 1 rare allele” value [3] was 0.57. The “Pravastatin vs placebo odds ratio, 2 rare alleles” value [3] was 1.72, the “2 Rare Alleles (%), Pravastatin Patients” value (SERPINI2 hCV370782, CARE Case/Control, F&NF MI) was “(16.2%)” and the “2 Rare Alleles (%), Pravastatin Patients” value (SERPINI2 hCV370782, CARE Prospective, F&NF MI) was “(15.8%)”. For the same compound, the “2 Rare Alleles (%), Pravastatin Patients” value [4] was “(7.5%)”, the “2 Rare Alleles n/total, Pravastatin Patients” value [4] was 13/173 and the “Pravastatin vs placebo odds ratio, 0 rare alleles” value [4] was 0.71. For the same compound, the “Pravastatin vs placebo odds ratio, 1 rare allele” value [4] was 1.02, the “Pravastatin vs placebo odds ratio, 2 rare alleles” value [4] was 0.30 and the “2 Rare Alleles (%), Pravastatin Patients” value [5] was “(7.5%)”. The “2 Rare Alleles n/total, Pravastatin Patients” value [5] was 13/174, the “Pravastatin vs placebo odds ratio, 0 rare alleles” value [5] was 0.72 and the “Pravastatin vs placebo odds ratio, 1 rare allele” value [5] was 0.98. For the same compound, the “Pravastatin vs placebo odds ratio, 2 rare alleles” value [5] was 0.31, the “2 Rare Alleles n/total, Pravastatin Patients” value [6] was 1/36 and 1/25 and the “Pravastatin vs placebo odds ratio, 0 rare alleles” value [6] was 0.98 and 0.89. For the same compound, the “Pravastatin vs placebo odds ratio, 1 rare allele” value [6] was 0.61 and 0.56, the “Pravastatin vs placebo odds ratio, 2 rare alleles” value [6] was 0.08 and the “2 Rare Alleles n/total, Pravastatin Patients” value [7] was 1/36 and 1/25. For the same compound, the “Pravastatin vs placebo odds ratio, 0 rare alleles” value [7] was 1.00 and 0.88, the “Pravastatin vs placebo odds ratio, 1 rare allele” value [7] was 0.60 and 0.55 and the “Pravastatin vs placebo odds ratio, 2 rare alleles” value [7] was 0.09 and 0.08. The “2 Rare Alleles (%), Pravastatin Patients” value [8] was “(29.2%)”, the “2 Rare Alleles n/total, Pravastatin Patients” value [8] was 7/24 and the “Pravastatin vs placebo odds ratio, 0 rare alleles” value [8] was 0.76. The “Pravastatin vs placebo odds ratio, 1 rare allele” value [8] was 0.56, the “Pravastatin vs placebo odds ratio, 2 rare alleles” value [8] was 6.81 and the “2 Rare Alleles (%), Pravastatin Patients” value [9] was “(8.8%)”. For the same compound, the “2 Rare Alleles n/total, Pravastatin Patients” value [9] was 3/34, the “Pravastatin vs placebo odds ratio, 0 rare alleles” value [9] was 0.87 and the “Pravastatin vs placebo odds ratio, 1 rare allele” value [9] was 0.52. The “Pravastatin vs placebo odds ratio, 2 rare alleles” value [9] was 0.14, the “2 Rare Alleles (%), Pravastatin Patients” value (TNF hCV7514879, CARE Case/Control, F&NF MI) was “(8.8%)” and the “2 Rare Alleles (%), Pravastatin Patients” value [10] was “(8.6%)”. For the same compound, the “2 Rare Alleles n/total, Pravastatin Patients” value [10] was 3/35, the “Pravastatin vs placebo odds ratio, 0 rare alleles” value [10] was 0.88 and the “Pravastatin vs placebo odds ratio, 1 rare allele” value [10] was 0.50. The “Pravastatin vs placebo odds ratio, 2 rare alleles” value [10] was 0.12, the “2 Rare Alleles (%), Pravastatin Patients” value (TNF hCV7514879, CARE Prospective, F&NF MI) was “(8.6%)” and the “2 Rare Alleles n/total, Pravastatin Patients” value [11] was 21/260 and 21/168. The “Pravastatin vs placebo odds ratio, 0 rare alleles” value [11] was 1.51 and 1.37, the “Pravastatin vs placebo odds ratio, 1 rare allele” value [11] was 0.63 and 0.56 and the “Pravastatin vs placebo odds ratio, 2 rare alleles” value [11] was 0.66 and 0.64. The “2 Rare Alleles (%), Pravastatin Patients” value [12] was “(7.9%)”, the “2 Rare Alleles n/total, Pravastatin Patients” value [12] was 21/266 and 21/174 and the “Pravastatin vs placebo odds ratio, 0 rare alleles” value [12] was 1.54 and 1.31. The “Pravastatin vs placebo odds ratio, 1 rare allele” value [12] was 0.65 and 0.58 and the “Pravastatin vs placebo odds ratio, 2 rare alleles” value [12] was 0.63 and 0.61.
